# Key:
# in vivo = assay: in vivo; design: species or system rhesus monkeys; conditions: female, rhesus monkey, iv, 0.05 mg, AUC Area Under the Curve after intravenous administration
# Experimental: Serum concentration time profiles after intravenous administration: Four female rhesus monkeys, #388, #391, #423, and #430, were used in a cross over design for IV and pad bioavailability experiments. From each monkey, 7 ml of blood sample was removed on the previous day of the experiment, centrifuged to separate serum, and stored at -20°C till the analysis. This serum sample was used to make blanks and standards. […] The serum was separated from blood via centrifugation and stored at -20 °C till analysis.
# Analysis of serum samples. […] The aqueous extracts were analyzed by an HPLC-Fluorescence method.
# [1] = use for preterm labor; cited from earlier work
# [2] = Serum concentration time profile and pharmacokinetics after transdermal pad administration; type: in vivo, rhesus monkeys; conditions: rhesus monkey, read-out: AUC Area Under the Curve after transdermal administration
# Experimental: Serum concentration time profiles after transdermal pad administration. After overnight fasting, on the day of the experiment, monkeys were restrained in chairs and the chest areas were clipped to remove hair, avoiding any injury to the skin tissue. Skin surface was wiped with isopropyl alcohol swab and a 4 square centimeter portion of the pad was then applied to the chest area for 24 hours and was removed as described previously. Following the pad application, blood samples were removed at 0.00, 0.5, 1.00, 1.50, 3.00, 5.00, 7.00, 12.00, 24.00, 31.00, and 48.00 hours, centrifuged to separate serum and stored at -20 °C till the analysis.
# Analysis of serum samples. Serum albuterol and internal standard bamethan sulphate were extracted into chloroform to remove polar interfering substances and reextracted in to the aqueous phase to eliminate nonpolar materials. The aqueous extracts were analyzed by an HPLC-Fluorescence method.
# [3] = Figure 1; against prior art agents such as Azone® and isopropyl alcohol (IPA)
AUC (in vivo),"AUC ([2]; Monkey #423, Transdermal dose 0.77 mg.Kg⁻¹)","AUC ([2]; topical or ocular, Monkey #388, Transdermal dose 0.38 mg.Kg⁻¹)","AUC ([2]; topical or ocular, Monkey #391, Transdermal dose 0.39 mg.Kg⁻¹)","AUC ([2]; topical or ocular, Monkey #430, Transdermal dose 0.72 mg.Kg⁻¹)",effect of adjuvant agent on the flux of albuterol [3],SMILES,plasma levels needed for uterine relaxation [1]
70.7 ng·h/mL,1530 ng·h/mL,712 ng·h/mL,777 ng·h/mL,1260 ng·h/mL,,CC(C)(C)NCC(O)c1ccc(O)c(CO)c1 (stereo not shown) [albuterol],8 to 33 nanograms per milliliter
,,,,,most effective,CCO [ethanol],
